# Assay results reported in patent publication US20230285598A1, “SULFOXONIUM YLIDE DERIVATIVES AS PROBES FOR CYSTEINE PROTEASE” (Takeda Pharmaceutical Company Limited, priority 2018, published 2023).
# Experiments:
# [1] = target: T1, cathepsin X (Mus musculus, UniProt Q9WUU7); experiment: Probe labeling of living RAW264.7 cells, in-gel fluorescence; format: cell-based; design: protein lysates prepared from RAW264.7 cells; host or cells: RAW264.7; details: Example 8; 0.1-5 µM for 2 hours
# Procedure: AW cells or MDA-MB-231 ^HM cells were plated in 12-well plates. Where indicated, MDV-590 or vehicle was added at 10 µM from a 10 mM DMSO stock for overnight incubation. When the cell density reached 80%, the indicated probes were added at the indicated concentrations from a 1000x DMSO stock and allowed to incubate for the indicated time. Media was then removed and replaced with PBS. The cells were then scraped and transferred to tubes, and lysis and SDS-PAGE analysis were carried out as above, except skipping the probe addition step. […]
# In Example 8, sulfoxonium ylide probes as prepared in accordance with Example 1 were applied to live RAW264.7 cells for two hours, in order to examine the potency and permeability of the sulfoxonium ylide probe series in living cells, and the results compared to BMV109.
# The sulfoxonium ylide probes (and BMV109) were each added with increasing probe concentrations of 0.1 µM, 0.5 µM, 1 µM and 5 µM for 2 hours. […]
# [2] = target: T1, cathepsin X; experiment: Probe labeling of kidney lysates, in-gel fluorescence; format: biochemical; details: 0.1-5 µM for 20 minutes
# Procedure: (§1) issues were harvested from healthy mice and snap frozen. At the time of analysis, lysis buffer was added at 10x volume:weight, and tissues were sonicated on ice. Cleared lysates were labeled with the indicated probe and analyzed as above.
# In Example 7, sulfoxonium ylide probes as prepared in accordance with Example 1 were tested in kidney lysates and the results compared to BMV109. The sulfoxonium ylide probes (and BMV109) were each added with increasing probe concentrations of 0.1 µM, 0.5 µM, 1 µM and 5 µM for 20 minutes.
# [3] = target: T2, cathepsin S (Mus musculus, UniProt O70370); experiment: Inhibition in live RAW264.7 cells, residual activity by sCy5-Val-SY labeling; format: cell-based; details: 100 µM overnight pre-treatment, compared to controls
# T2 construct: Live RAW264.7 cells were pre-treated with Boc-Val-SY (0, 10 or 100 µM) overnight; host or cells: RAW264.7
# [4] = target: T1, cathepsin X; experiment: as above; format: cell-based; design: protein lysates prepared from RAW264.7 cells; host or cells: RAW264.7; details: 100 µM overnight pre-treatment, compared to controls
# Procedure: To test the ability of sulfoxonium ylide compounds to act as cathepsin inhibitors, an unlabeled, boc-protected version of Val-SY, i.e. tert-butyl (S)-(1-(dimethyl(oxo)-λ ^6-sulfanylidene)-4-methyl-2-oxopentan-3-yl)carbamate (SJM-724-24) was used. Live RAW264.7 cells were pre-treated with Boc-Val-SY (0, 10 or 100 µM) overnight. Residual cathepsin X activity was measured by incubating the live cells with sCy5-Val-SY for two hours. Cells were lysed and labeled proteins were detected by in-gel fluorescence.
# [5] = target: T1, cathepsin X; experiment: Probe labeling of mouse splenic lysates (wildtype or cathepsin X-deficient), in-gel fluorescence; format: biochemical; details: probe 1 µM for 20 minutes
# Procedure: as §1
# In Example 4, the ability of sCy5-Val-SY to label cathepsin X in mouse splenic lysates (from wildtype mice or cathepsin X-deficient mice) was tested (probe addition at 1 µM for 20 minutes).
# [6] = target: T1, cathepsin X; experiment: In vivo probe labeling in mice (intravenous), tissues analyzed by fluorescent SDS-PAGE; details: intravenous 50 nmol, two hours of circulation
# Procedure: For in vivo labeled tissues, mice were first injected intravenously via the tail vein with sCy5-Nle-SY, BMV109, or sCy5-Nle-AOMK (50 nmol in 100 µl 10% DMSO/PBS or vehicle control). Tissues were harvested and analyzed as above except without further probe addition.
# In Example 10, the probe sCy5-Nle-SY, vehicle control/no probe (NP) or BMV109 were injected into mice intravenously. After two hours of circulation, tissues were harvested, lysed, and analyzed for probe labeling by fluorescent SDS-PAGE.
# In Example 12, the AOMK probe sCy5-Nle-AOMK was tested in vivo and its labeling in tissues was analyzed. The probe was injected into mice intravenously. After two hours of circulation, tissues were harvested, lysed, and analyzed for probe labeling by fluorescent SDS-PAGE.
# [7] = target: cathepsin X (Homo sapiens, UniProt Q9UBR2); experiment: Probe labeling of live MDA-MB-231 HM cells, in-gel fluorescence; format: cell-based; design: cathepsin X in a human breast cancer line known to express very low levels of cathepsin S; host or cells: MDA-MB-231 HM; details: 0.1-5 µM, overnight incubation
# Procedure: AW cells or MDA-MB-231 ^HM cells were plated in 12-well plates. Where indicated, MDV-590 or vehicle was added at 10 µM from a 10 mM DMSO stock for overnight incubation. When the cell density reached 80%, the indicated probes were added at the indicated concentrations from a 1000x DMSO stock and allowed to incubate for the indicated time. Media was then removed and replaced with PBS. The cells were then scraped and transferred to tubes, and lysis and SDS-PAGE analysis were carried out as above, except skipping the probe addition step.
# In Example 9, the specificity of the sulfoxonium ylide probes for cathepsin X in a human breast cancer line known to express very low levels of cathepsin S, MDA-MB-231 ^HM (Chang et al., 2007) was tested, and the results compared to BMV109. The MDA-MB-231 ^HM cells also allowed to test whether the sulfoxonium ylide probes could bind to human cathepsin X (in addition to mouse cathepsin X shown previously).
# The sulfoxonium ylide probes (and BMV109) were each added with increasing probe concentrations of 0.1 µM, 0.5 µM, 1 µM and 5 µM).
# [8] = target: T1, cathepsin X; experiment: Probe labeling of RAW264.7 cell lysates, SDS-PAGE in-gel fluorescence; format: biochemical; design: protein lysates prepared from RAW264.7 cells; host or cells: RAW264.7
# Procedure: ells were harvested by scraping, washed once with PBS, and resuspended in lysis buffer containing 50 mM citrate [pH 5.5], 0.5% CHAPS, 0.1% Triton X-100, and 4 mM DTT. Cells were incubated on ice for at least 10 minutes with intermittent vortexing followed by centrifugation ([…] at 4° C. or 5 minutes). Cleared supernatants were then transferred to a fresh tube and protein concentration was determined by BCA. Total protein (50 µg) was aliquoted into tubes in a final volume of 20 µl lysis buffer. Where indicated, JPM-OEt or MDV-590 were added from a 100x DMSO stock and incubated at 37° C. or 20 minutes prior to probe addition. The indicated concentration of probe was added from a 100x DMSO stock. Labeling was carried out at 37° C. or 20 minutes (unless otherwise indicated), and the reactions were quenched by the addition of 5x sample buffer (200 mM Tris-Cl [pH 6.8], 8% SDS, 0.04% bromophenol blue, 5% b-mercaptoethanol, and 40% glycerol). Samples were then boiled for five minutes and proteins were resolved on a 15% SDS-PAGE gel. The gels were scanned on a Typhoon 5 flatbed laser scanner at 633/670 nm excitation/emission to detect sCy5 fluorescence.
# robe-labeled lysate from above (in sample buffer) was divided into input or pulldown (~50 µg total protein each). The input sample was stored at -20° C. The pulldown sample was diluted in 500 µl IP buffer (PBS [pH 7.4],[…], 1 mM EDTA). Goat anti-cathepsin X antibody (10 µl) was added along with 40 µl slurry of pre-washed Protein A/G agarose beads. Samples were rotated overnight at 4° C. Beads were then washed four times with IP buffer followed by a final wash in 0.9% NaCl. Beads were then resuspended in 2x sample buffer and boiled. The pulldown supernatants, alongside the input samples, were analysed by fluorescent SDS-PAGE as above.
# In Example 3, the sulfoxonium ylide probe sCy5-Val-SY was incubated with protein lysates prepared from RAW264.7 cells, an immortalized mouse macrophage line that contains high levels of active cysteine cathepsins (Verdoes et al., 2013). Cells were lysed in citrate buffer (pH 5.5) to provide optimal conditions for cathepsin activation, and the probe was added • at 1 µM for 20 minutes • at various concentrations (0 µM, 0.01 µM, 0.05 µM, 0.1 µM, 0.5 µM or 1 µM) for 20 minutes; or • at 1 µM for varying times (0, 1, 2, 5, 10, 20, and 30 minutes).
# Then the lysates were resolved by SDS-PAGE and the gel scanned for sCy5 fluorescence using a flatbed laser scanner.
# The labeling profile of sCy5-Val-SY was compared to that of BMV109, the pan-cathepsin probe, by repeating the above experiment using BMV109 as the probe added at 1 µM for 20 minutes.
# In Example 6, a small library of sulfoxonium ylide probes with varying amino acids in the P1 position as prepared in accordance with Example 1 was tested in RAW264.7 lysates, and compared to BMV109. Each probe was added with increasing probe concentrations of 0.01 µM, 0.05 µM, 0.1 µM, 0.5 µM, 1 µM and 5 µM for 20 minutes).
# [9] = Example 6, 0.01-5 µM for 20 minutes
# T1 sequence (Q9WUU7 64-306): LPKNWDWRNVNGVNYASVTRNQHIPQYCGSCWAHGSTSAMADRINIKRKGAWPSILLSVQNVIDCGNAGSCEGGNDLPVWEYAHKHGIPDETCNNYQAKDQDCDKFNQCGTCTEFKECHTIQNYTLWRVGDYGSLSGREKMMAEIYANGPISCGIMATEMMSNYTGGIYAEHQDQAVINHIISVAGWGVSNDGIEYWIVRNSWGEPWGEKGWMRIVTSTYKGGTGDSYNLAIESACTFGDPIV
# Chain of cathepsin X (Homo sapiens, UniProt Q9UBR2) (Q9UBR2 62-303): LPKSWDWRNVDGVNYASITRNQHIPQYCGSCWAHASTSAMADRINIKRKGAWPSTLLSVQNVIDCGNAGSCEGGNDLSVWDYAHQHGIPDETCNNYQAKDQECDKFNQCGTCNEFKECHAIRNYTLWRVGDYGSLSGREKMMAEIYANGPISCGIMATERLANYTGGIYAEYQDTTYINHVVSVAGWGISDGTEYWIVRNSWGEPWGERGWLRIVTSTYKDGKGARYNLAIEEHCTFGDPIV
compound,measurement,setting,value
CC[N+]1=C(/C=C/C=C/C=C2/N(CCCCCC(=O)N[C@@H](Cc3ccccc3)C(=O)C=S(C)(C)=O)c3ccc(S(=O)(=O)O)cc3C2(C)C)C(C)(C)c2cc(S(=O)(=O)[O-])ccc21 [sCy5-Phe-SY],cathepsins labeled in live RAW264.7 cells,[1],labeled cathepsin X and S to similar extents and with similar potency
same,potency and specificity of labeling in kidney lysates,[2],broader reactivity
"CC(C)[C@H](NC(=O)OC(C)(C)C)C(=O)C=S(C)(C)=O [Boc-Val-SY, tert-butyl (S)-(1-(dimethyl(oxo)-λ^6-sulfanylidene)-4-methyl-2-oxopentan-3-yl)carbamate]",reduction in cathepsin S,[3],51%
same,reduction in cathepsin X,[4],71%
"CC[N+]1=C(/C=C/C=C/C=C2\N(CCCCCC(=O)NCCCC[C@H](NC(=O)[C@H](Cc3ccccc3)NC(=O)OCc3ccccc3)C(=O)COc3c(F)c(F)c(C(=O)NCCNC(=O)C4CCN(S(=O)(=O)c5ccccc5-c5c6ccc(N7CCc8cc(S(=O)(=O)[O-])ccc87)cc6[o+]c6cc(N7CCc8cc(S(=O)(=O)O)ccc87)ccc56)CC4)c(F)c3F)c3ccc(S(=O)(=O)O)cc3C2(C)C)C(C)(C)c2cc(S(=O)(=O)[O-])ccc21 [BMV109, reference compound]",labeling in splenic lysates from wildtype mice,[5],"strongly labeled cathepsin B and to a lesser extent, cathepsin S and L"
same,"labeling of cathepsin S, B and L in tissues after in vivo administration",[6],strongly labels cathepsin B and L
CC[N+]1=C(/C=C/C=C/C=C2/N(CCCCCC(=O)N[C@@H](Cc3ccccc3)C(=O)N[C@H](C(=O)C=S(C)(C)=O)C(C)C)c3ccc(S(=O)(=O)O)cc3C2(C)C)C(C)(C)c2cc(S(=O)(=O)[O-])ccc21 [sCy5-Phe-Val-SY],cross-reactivity with cathepsin B and L in live MDA-MB-231 HM cells,[7],the most cross-reactivity with cathepsin B and L
same,cathepsins labeled in live RAW264.7 cells,[1],labeled cathepsin B and L in addition to cathepsin X and S
same,potency and specificity of labeling in kidney lysates,[2],broader reactivity
same,potency of labeling in RAW264.7 lysates,[8]; [9],improved potencies for cathepsin X and S compared to BMV109
same,specificity of labeling in RAW264.7 lysates,[8]; [9],loss of specificity
CCCC[C@H](NC(=O)CCCCN1/C(=C/C=C/C=C/C2=[N+](CC)c3ccc(S(=O)(=O)[O-])cc3C2(C)C)C(C)(C)c2cc(S(=O)(=O)O)ccc21)C(=O)COC(=O)c1c(C)cccc1C [sCy5-Nle-AOMK],"labeling of cathepsin S, B and L in tissues after in vivo administration",[6],"Only weak labeling of cathepsin B and S was observed in the colon, but not in other tissues examined"
JPM-OEt [reference compound],competition for sCy5-Val-SY labeling by inhibitor pretreatment,"[8]; RAW264.7 lysates pretreated with 10 µM inhibitor, then sCy5-Val-SY 1 µM 20 minutes",labeling was prevented
CC[N+]1=C(/C=C/C=C/C=C2/N(CCCCCC(=O)N[C@@H](CC(C)C)C(=O)C=S(C)(C)=O)c3ccc(S(=O)(=O)O)cc3C2(C)C)C(C)(C)c2cc(S(=O)(=O)[O-])ccc21 [sCy5-Leu-SY],cathepsins labeled in live RAW264.7 cells,[1],labeled cathepsin X and S to similar extents and with similar potency
same,potency and specificity of labeling in kidney lysates,[2],the most potency and specificity for cathepsin X
CC[N+]1=C(/C=C/C=C/C=C2/N(CCCCCC(=O)N[C@@H](Cc3c[nH]c4ccccc34)C(=O)C=S(C)(C)=O)c3ccc(S(=O)(=O)O)cc3C2(C)C)C(C)(C)c2cc(S(=O)(=O)[O-])ccc21 [sCy5-Trp-SY],cathepsins labeled in live RAW264.7 cells,[1],labeled cathepsin X and S to similar extents and with similar potency
CC[N+]1=C(/C=C/C=C/C=C2/N(CCCCCC(=O)NCCCC[C@H](NC(=O)OCc3ccccc3)C(=O)C=S(C)(C)=O)c3ccc(S(=O)(=O)O)cc3C2(C)C)C(C)(C)c2cc(S(=O)(=O)[O-])ccc21 [Cbz-Lys(sCy5)-SY],cross-reactivity with cathepsin B and L in live MDA-MB-231 HM cells,[7],the most cross-reactivity with cathepsin B and L
same,cathepsins labeled in live RAW264.7 cells,[1],preference for cathepsin S
same,potency and specificity of labeling in kidney lysates,[2],broader reactivity
same,specificity of labeling in RAW264.7 lysates,[8]; [9],"loss of specificity, favoring cathepsin S over X and B"
